pKi: −log10 of the molar value.
Legend:
rabbits = assay: Reduction of blood cholesterol levels in rabbits; assay type: in vivo; settings: rabbit, 1 mg/kg oral twice each day
Method: In this test, the ability of Monacolin K to reduce cholesterol levels in rabbit blood is measured. The animals employed should each weigh from 2.5 to 3.0 kg. At the beginning of the tests, blood is collected from a vein in an ear of each rabbit and the cholesterol level in the blood serum is measured by a conventional method. A predetermined quantity of Monacolin K or of a Monacolin K-containing culture broth is then administered orally continuously for from 1 to 5 days and the cholesterol level in the blood serum is measured at stages after the administration. The potency of the Monacolin K or Monacolin K-containing culture medium can be determined quantitatively from the blood cholesterol levels obtained prior to and after administration of the Monacolin K.
The test animals used were rabbits having a body weight of from 2.7. kg to 2.9 kg. Each rabbit was given orally 1 mg/kg of Monacolin K twice each day (morning and evening) continuously for 5 days. Prior to administration and at 3 and 5 days after administration, blood was collected from a vein in the ear and the cholesterol levels in the blood serum were determined.

Acute oral toxicity = settings: in vivo, mouse
Description: Not only does Monacolin K have a valuable inhibitory effect on the biosynthesis of cholesterol, but it also has a very low toxicity, making its use for the treatment of hypercholesteraemia potentially very attractive. Specifically the acute oral toxicity (LD50) of Monacolin K in the mouse is 1 g/kg body weight or more.

HMG-CoA reductase = biological target: T1, HMG-CoA reductase (Rattus norvegicus, UniProt P51639); assay: biochemical
T1 sequence (P51639 1-887): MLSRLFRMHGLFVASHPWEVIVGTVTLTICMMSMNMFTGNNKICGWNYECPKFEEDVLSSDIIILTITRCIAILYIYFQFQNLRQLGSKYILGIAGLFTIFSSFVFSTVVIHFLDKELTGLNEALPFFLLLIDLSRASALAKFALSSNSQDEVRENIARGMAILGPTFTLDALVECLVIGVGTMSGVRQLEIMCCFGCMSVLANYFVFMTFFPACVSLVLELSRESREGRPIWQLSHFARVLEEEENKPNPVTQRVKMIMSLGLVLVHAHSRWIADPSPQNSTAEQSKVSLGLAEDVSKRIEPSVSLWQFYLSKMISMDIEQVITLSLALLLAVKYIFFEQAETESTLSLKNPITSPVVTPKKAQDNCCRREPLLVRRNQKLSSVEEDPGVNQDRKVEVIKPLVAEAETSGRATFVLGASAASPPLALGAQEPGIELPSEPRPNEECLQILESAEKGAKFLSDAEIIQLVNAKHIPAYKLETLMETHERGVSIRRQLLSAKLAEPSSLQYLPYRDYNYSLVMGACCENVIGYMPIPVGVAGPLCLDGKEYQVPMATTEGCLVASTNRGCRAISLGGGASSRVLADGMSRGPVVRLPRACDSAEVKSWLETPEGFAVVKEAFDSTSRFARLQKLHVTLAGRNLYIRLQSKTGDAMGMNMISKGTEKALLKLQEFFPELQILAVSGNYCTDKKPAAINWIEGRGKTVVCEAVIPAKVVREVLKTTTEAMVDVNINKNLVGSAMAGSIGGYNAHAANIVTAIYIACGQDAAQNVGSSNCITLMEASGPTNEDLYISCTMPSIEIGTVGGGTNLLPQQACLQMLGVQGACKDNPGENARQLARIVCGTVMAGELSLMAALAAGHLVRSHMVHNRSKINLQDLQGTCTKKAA
Description: The value is obtained by the product of the concentrations of enzyme and of inhibitor divided by the concentration of the enzyme-inhibitor complex.

[1] = biological target: cholesterol biosynthesis (crude enzymes from rat liver); assay: In vitro test with rat liver: inhibition of cholesterol biosynthesis from radioactive acetic acid; assay type: biochemical; settings: acetic acid reacted with enzyme from rat liver
[2] = test system: rats of the Wistar Imamichi strain; assay: Reduction of blood and liver cholesterol levels in Triton WR-1339 treated rats; assay type: in vivo; settings: rat
Method: The animals used were rats of the Wistar Imamichi strain, each having a body weight of about 300 g. The tests were conducted on groups of rats, each group consisting of 5 animals. Each animal was intravenously injected with 400 mg/kg of Triton WR-1339 (a trade name for a material known to increase the blood cholesterol level) whilst simultaneously administering 10 mg/kg of Monacolin K either orally or intraperitoneally. 20 hours after oral administration or 14 hours after intraperitoneal administration, the rats were sacrificed by bleeding and the blood and livers were collected and their cholesterol levels were determined by conventional means.

[3] = assay type: physicochemical
Description: Insoluble in hexane and petroleum ether.
The compound is neutral and is insoluble in neutral or acidic aqueous media. It is, however, converted to an acidic substance by treatment with alkali and this acidic substance is soluble in water. The acidic substance can be extracted with ethyl acetate or chloroform at acid pH values and will revert to Monacolin K on evaporation of the solvent.

[4] = 10 mg/kg oral, 20 hours after administration

SMILES	blood serum cholesterol level lower than prior to administration (rabbits; at 3 days) [%]	blood serum cholesterol level lower than prior to administration (rabbits; at 5 days) [%]	LD50 (Acute oral toxicity) [mg/kg]	pKi (HMG-CoA reductase; competitive with respect to HMG-CoA, read-out: Ki value (inhibition constant))	manner of inhibition of HMG-CoA reductase (HMG-CoA reductase; with respect to HMG-CoA)	concentration giving 50% inhibition of cholesterol biosynthesis [1] [µg/mL]	reduction of blood cholesterol level vs control group (Triton WR-1339 alone) ([2]; 10 mg/kg intraperitoneal, 14 hours after administration) [%]	reduction of blood cholesterol level vs control group (Triton WR-1339 alone) [2, 4] [%]	reduction of liver cholesterol level [2, 4] [%]	Solubility [3]
CCC(C)C(=O)OC1CC(C)C=C2C=CC(C)C(CCC3CC(O)CC(=O)O3)C21 (stereo not shown) [Monacolin K]	15	29	≥ 1000	9.28	competitive	0.002	23.9	22.4	16.7	
CCC(C)C(=O)OC1CC(C)C=C2C=CC(C)C(CCC(O)CC(O)CC(=O)O)C21 (stereo not shown) [acidic substance]										soluble
